Assay results from patent publication US20230013669A1, “Antibacterial Treatment Using a Cannabinoid and an Active Agent” (priority 2019, published 2023).
Values joined by “and” are separate entries in the source; they are usually repeats but may differ in a detail not shown here. Equal entries are not always repeated.

Tested on: Escherichia coli ATCC 25922 (GN_001)
Test: Synergy of cannabidiol with cell-wall disrupting agent (CBD MIC in combination, FICI)
Format: cell-based
Experimental: The compounds were stored short term at 4° C.
Analysis was performed using Microsoft Excel.

[1] = CBD with Colistin, Escherichia coli ATCC 25922
[2] = CBD with MCC_6442, Escherichia coli ATCC 25922
[3] = CBD with Ticarcillin, Escherichia coli ATCC 25922

## C=C(C)C1CCC(C)=CC1c1c(O)cc(CCCCC)cc1O (stereo not shown) [Cannabidiol, 2-[3-methyl-6-(1-methylethenyl)-2-cyclohexen-1-yl]-5-pentyl-1,3-benzenediol]
Aztreonam at 0.062 μg/mL
  CBD MIC with Aztreonam: 1 ng/mL
Aztreonam at 0.25 μg/mL
  CBD MIC with Aztreonam: 1 ng/mL
Aztreonam at 0.5 μg/mL
  CBD MIC with Aztreonam: 1 ng/mL
Aztreonam at […]
  CBD MIC with Aztreonam: 1 ng/mL
CBD with Aztreonam at 0.015 μg/mL, CBD MIC taken as 256 μg/mL
  FICI: 1.12
CBD with Aztreonam at 0.031 μg/mL, CBD MIC taken as 256 μg/mL
  FICI: 1.248
CBD with Aztreonam at 0.062 μg/mL, CBD MIC taken as 256 μg/mL
  FICI: 0.496
CBD with Aztreonam at 0.25 μg/mL, CBD MIC taken as 256 μg/mL
  FICI: 2
CBD with Aztreonam at 0.5 μg/mL, CBD MIC taken as 256 μg/mL
  FICI: 4
CBD with Aztreonam, Synergy table (Table 76)
  FICI range: 0.48
CBD with Aztreonam, all tested concentrations (Table 74)
  FICI range: 0.5-4
CBD with Cefepime at 0.015 μg/mL, CBD MIC taken as 256 μg/mL
  FICI: 1.484 and 1.242
CBD with Cefepime at 0.062 μg/mL, CBD MIC taken as 256 μg/mL
  FICI: 2
CBD with Cefepime at 0.25 μg/mL, CBD MIC taken as 256 μg/mL
  FICI: 8.065
CBD with Cefepime at 0.25 μg/mL, CBD MIC taken as 256 μg/mL, listed as cannabidiol
  FICI: 4.032
CBD with Cefepime at 0.5 μg/mL, CBD MIC taken as 256 μg/mL
  FICI: 16.13 and 8.065
CBD with Cefepime, all tested concentrations (Table 79), listed as CBD
  FICI range: 1-16.13 and 0.5-8.06
CBD with Cefotetan at 0.015 μg/mL, CBD MIC taken as 256 μg/mL
  FICI: 1.06
CBD with Cefotetan at 0.031 μg/mL, CBD MIC taken as 256 μg/mL
  FICI: 1.124
CBD with Cefotetan at 0.062 μg/mL, CBD MIC taken as 256 μg/mL
  FICI: 1.248
CBD with Cefotetan at 0.5 μg/mL, CBD MIC taken as 256 μg/mL
  FICI: 2
CBD with Cefotetan, Escherichia coli ATCC 25922
  FICI range (MIC table): 0.5-2
CBD with Cefotetan, Synergy table (Table 71)
  FICI range: 0.5
CBD with Ceftazidime at 0.015 μg/mL, Escherichia coli ATCC 25922
  FICI: 1.242
CBD with Ceftazidime at 0.031 μg/mL, Escherichia coli ATCC 25922
  FICI: 1.5
CBD with Ceftazidime at 0.062 μg/mL, Escherichia coli ATCC 25922
  FICI: 2
CBD with Ceftazidime at 0.25 μg/mL, Escherichia coli ATCC 25922
  FICI: 4.032
CBD with Ceftazidime at 0.5 μg/mL, Escherichia coli ATCC 25922
  FICI: 8.065
CBD with Ceftazidime, Escherichia coli ATCC 25922
  FICI range (MIC table): 1.24-8.06
CBD with Cefuroxime at 0.25 μg/mL, Escherichia coli ATCC 25922
  FICI: 1.125
CBD with Cefuroxime at 1 μg/mL, Escherichia coli ATCC 25922
  FICI: 1.5
CBD with Cefuroxime at 2 μg/mL, Escherichia coli ATCC 25922
  FICI: 1.001
CBD with Cefuroxime at 4 μg/mL, Escherichia coli ATCC 25922
  FICI: 2
CBD with Cefuroxime at 8 μg/mL, Escherichia coli ATCC 25922
  FICI: 4
CBD with Colistin at 0.015 μg/mL, Escherichia coli ATCC 25922
  FICI: 1.03
CBD with Colistin at 0.03 μg/mL, Escherichia coli ATCC 25922
  FICI: 1.06
CBD with Colistin at 0.06 μg/mL, Escherichia coli ATCC 25922
  FICI: 0.1512
CBD with Colistin at 0.25 μg/mL, Escherichia coli ATCC 25922
  FICI: 0.5039
CBD with Colistin at 0.5 μg/mL, Escherichia coli ATCC 25922
  FICI: 1
[1]
  FICI range (MIC table): 0.15-1.06
  FICI range (Synergy table): 0.15-0.5
[2]
  FICI range (MIC table): 0.5-1.25
  FICI range (Synergy table): 0.5
CBD with MCC_6442 at 0.25 μg/mL, Escherichia coli ATCC 25922
  FICI: 1.0625
CBD with MCC_6442 at 0.5 μg/mL, Escherichia coli ATCC 25922
  FICI: 1.125
CBD with MCC_6442 at 2 μg/mL, Escherichia coli ATCC 25922, listed as CBD
  FICI: 0.5
CBD with Octapeptin C4, Synergy table (Table 85), listed as CBD
  FICI range: 0.5 and 0.31-0.5
CBD with Octapeptin C4, all tested concentrations (Table 83), listed as CBD
  FICI range: 0.5-1.25 and 0.31-1.13
CBD with Octapeptin C4 at 0.5 μg/mL, CBD MIC taken as 256 μg/mL
  FICI: 1.0625
CBD with Octapeptin C4 at 1 μg/mL, CBD MIC taken as 256 μg/mL
  FICI: 1.125
CBD with Octapeptin C4 at 2 μg/mL, CBD MIC taken as 256 μg/mL
  FICI: 0.3125
CBD with Octapeptin C4 at 4 μg/mL, CBD MIC taken as 256 μg/mL
  FICI: 0.5002 and 0.5005
CBD with Octapeptin C4 at […], CBD MIC taken as 256 μg/mL
  FICI: 1.016
CBD with Spero SPR206, 1st of 3 experiments
  FICI range: 0.5-16
CBD with Spero SPR206, 2nd of 3 experiments, listed as CBD
  FICI range: 0.13-1.06 and 0.07-1.03
CBD with Spero SPR206, 3rd of 3 experiments
  FICI range: 1.01-8
CBD with Spero SPR206 at 0.007 μg/mL, 2nd of 3 experiments, CBD MIC taken as 256 μg/mL
  FICI: 1.014
CBD with Spero SPR206 at 0.015 μg/mL, 2nd of 3 experiments, CBD MIC taken as 256 μg/mL
  FICI: 1.03
CBD with Spero SPR206 at 0.062 μg/mL, 2nd of 3 experiments, CBD MIC taken as 256 μg/mL
  FICI: 0.1279
CBD with Spero SPR206 at 0.25 μg/mL, 2nd of 3 experiments, CBD MIC taken as 256 μg/mL
  FICI: 0.5039
CBD with Spero SPR206 at 0.25 μg/mL, 3rd of 3 experiments, CBD MIC taken as 256 μg/mL
  FICI: 1.5
CBD with Spero SPR206 at 0.5 μg/mL, 1st of 3 experiments, CBD MIC taken as 256 μg/mL
  FICI: 2
CBD with Spero SPR206 at 0.5 μg/mL, 3rd of 3 experiments, CBD MIC taken as 256 μg/mL
  FICI: 1.008
CBD with Spero SPR206 at 1 μg/mL, 1st of 3 experiments, CBD MIC taken as 256 μg/mL
  FICI: 4
CBD with Spero SPR206 at 1 μg/mL, 3rd of 3 experiments, CBD MIC taken as 256 μg/mL
  FICI: 2.002 and 2.001
CBD with Spero SPR206 at 2 μg/mL, 1st of 3 experiments, CBD MIC taken as 256 μg/mL
  FICI: 8
CBD with Spero SPR206 at 2 μg/mL, 3rd of 3 experiments, CBD MIC taken as 256 μg/mL
  FICI: 4.001
CBD with Spero SPR206 at 4 μg/mL, 1st of 3 experiments, CBD MIC taken as 256 μg/mL
  FICI: 16
CBD with Spero SPR206 at 4 μg/mL, 3rd of 3 experiments, CBD MIC taken as 256 μg/mL
  FICI: 8
CBD with Ticarcillin at 0.5 μg/mL, Escherichia coli ATCC 25922
  FICI: 1.0625
CBD with Ticarcillin at 1 μg/mL, Escherichia coli ATCC 25922
  FICI: 1.125
CBD with Ticarcillin at 4 μg/mL, Escherichia coli ATCC 25922
  FICI: 0.5005
[3]
  FICI range (MIC table): 0.5-1.25
  FICI range (Synergy table): 0.5
Cefepime at 0.031 μg/mL
  CBD MIC with Cefepime: 1 ng/mL
Cefepime at 0.062 μg/mL
  CBD MIC with Cefepime: 1 ng/mL
Cefepime at 0.25 μg/mL
  CBD MIC with Cefepime: 1 ng/mL
Cefepime at 0.5 μg/mL
  CBD MIC with Cefepime: 1 ng/mL
Cefepime at […]
  CBD MIC with Cefepime: 1 ng/mL
Cefotetan at 0.015 μg/mL
  CBD MIC with Cefotetan: >32000 ng/mL
Cefotetan at 0.015 μg/mL, Escherichia coli ATCC 25922
  CBD MIC with Cefotetan: >256000 ng/mL
Cefotetan at 0.031 μg/mL
  CBD MIC with Cefotetan: >32000 ng/mL
Cefotetan at 0.031 μg/mL, Escherichia coli ATCC 25922
  CBD MIC with Cefotetan: >256000 ng/mL
Cefotetan at 0.062 μg/mL
  CBD MIC with Cefotetan: >32000 ng/mL
Cefotetan at 0.062 μg/mL, Escherichia coli ATCC 25922
  CBD MIC with Cefotetan: >256000 ng/mL
Cefotetan at 0.25 μg/mL
  CBD MIC with Cefotetan: 1 ng/mL
Cefotetan at 0.25 μg/mL, Escherichia coli ATCC 25922
  CBD MIC with Cefotetan: 1 ng/mL
Cefotetan at 0.5 μg/mL
  CBD MIC with Cefotetan: 1 ng/mL
Cefotetan at 0.5 μg/mL, Escherichia coli ATCC 25922
  CBD MIC with Cefotetan: 1 ng/mL
Cefotetan at […]
  CBD MIC with Cefotetan: 1 ng/mL
Cefotetan at […], Escherichia coli ATCC 25922
  CBD MIC with Cefotetan: 1 ng/mL
Ceftazidime at 0.25 μg/mL, Escherichia coli ATCC 25922
  CBD MIC with Ceftazidime: 1 ng/mL
Ceftazidime at 0.5 μg/mL, Escherichia coli ATCC 25922
  CBD MIC with Ceftazidime: 1 ng/mL
Cefuroxime at 2 μg/mL, Escherichia coli ATCC 25922
  CBD MIC with Cefuroxime: 250 ng/mL
